In ChEMBL document CHEMBL1201862, “PubChem BioAssay data set” (2004):
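Cells were grown in 96-well plates and exposed to each compound for 48 hours at five concentrations; endpoints were interpolated linearly between bracketing concentrations, or set to the highest concentration if not reached. Here, GI50 denotes the concentration required for 50% inhibition of growth.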 Calls of active or inactive are those of the source. No stated cut-off is given here; in the data, active = GI50 up to about 1.1 µM and inactive = higher.

Legend:
Assay in all cases: NCI anticancer screen, dose series, 48 h
BT-549 = system: BT-549
CCRF-CEM = system: CCRF-CEM
DU-145 = system: DU-145
EKVX = system: EKVX
HCT-15 = system: HCT-15
Hs-578T = system: Hs-578T
LOX IMVI = system: LOX IMVI
MDA-MB-231 = system: MDA-MB-231
MDA-MB-435 = system: MDA-MB-435
NCI-H23 = system: NCI-H23
OVCAR-3 = system: OVCAR-3
OVCAR-4 = system: OVCAR-4
PC-3 = system: PC-3
RXF 393 = system: RXF 393
SF-295 = system: SF-295
SK-MEL-28 = system: SK-MEL-28
T47D = system: T47D
UACC-62 = system: UACC-62
COLO 205 = system: COLO 205
MOLT-4 = system: MOLT-4

| Structure (SMILES) | GI50 (BT-549) | GI50 (CCRF-CEM) | GI50 (DU-145) | GI50 (EKVX) | GI50 (HCT-15) [µM] | GI50 (Hs-578T) | GI50 (LOX IMVI) | GI50 (MDA-MB-231) | GI50 (MDA-MB-435) | GI50 (NCI-H23) | GI50 (OVCAR-3) | GI50 (OVCAR-4) | GI50 (PC-3) | GI50 (RXF 393) | GI50 (SF-295) | GI50 (SK-MEL-28) | GI50 (T47D) | GI50 (UACC-62) | GI50 (COLO 205) | GI50 (MOLT-4) |
| --- | --- | --- | --- | --- | --- | --- | --- | --- | --- | --- | --- | --- | --- | --- | --- | --- | --- | --- | --- | --- |
| CCCn1cnc2c(SCc3ccc(Cl)cc3)nc(N)nc21 | 29.1 µM (inactive) | 34.2 µM (inactive) | 36.6 µM (inactive) | 15.5 µM (inactive) | 27.3 | 47.2 µM (inactive) | 22 µM (inactive) | 16.9 µM (inactive) | 23.1 µM (inactive) | 31 µM (inactive) | 17.2 µM (inactive) | 32.7 µM (inactive) | 21.2 µM (inactive) | 22.3 µM (inactive) | 21.6 µM (inactive) | 29 µM (inactive) | 18.9 µM (inactive) | 21.6 µM (inactive) |  |  |
| c1cc2c(cc1NC1=NCCO1)CCCC2 | 13.7 µM (inactive) | 2.72 µM (inactive) | 5.08 µM (inactive) | 8.04 µM (inactive) | 3.45 | 4.6 µM (inactive) | 3.13 µM (inactive) | 2.16 µM (inactive) | 1.57 µM (inactive) | 4.09 µM (inactive) | 3.51 µM (inactive) | 10.7 µM (inactive) | 3.01 µM (inactive) | 2.67 µM (inactive) | 4.02 µM (inactive) | 5.19 µM (inactive) | 10.6 µM (inactive) | 4.11 µM (inactive) | 1.84 µM (inactive) | 2.65 µM (inactive) |
| CC1(C)CC2=NO[Se]3=C2C(=NO3)C1 | 1.47 µM (inactive) | 3.06 µM (inactive) | 3.83 µM (inactive) | 2.8 µM (inactive) | 0.811 | 4.35 µM (inactive) | 1.6 µM (inactive) | 4.19 µM (inactive) | 3.43 µM (inactive) | 2.15 µM (inactive) | 1.68 µM (inactive) | 3.41 µM (inactive) | 0.394 µM (active) | 3.15 µM (inactive) | 2.36 µM (inactive) | 4.54 µM (inactive) | 6.07 µM (inactive) | 2.27 µM (inactive) | 2.07 µM (inactive) | 3.48 µM (inactive) |
| COC(=O)CC1C(C)(C)C(=O)C2CC3=C4CC(=O)OC(c5ccoc5)C4(C)CCC3C1(C)C2=O (stereo not drawn) | > 100 µM (inactive) | > 100 µM (inactive) | > 100 µM (inactive) | > 100 µM (inactive) | > 100 | > 100 µM (inactive) | > 100 µM (inactive) | > 100 µM (inactive) | > 100 µM (inactive) | > 100 µM (inactive) | > 100 µM (inactive) | > 100 µM (inactive) | > 100 µM (inactive) | > 100 µM (inactive) | > 100 µM (inactive) | > 100 µM (inactive) | > 100 µM (inactive) | > 100 µM (inactive) | > 100 µM (inactive) | > 100 µM (inactive) |
| COc1ccc2c3c1O[C@H](c1ccc(O)cc1)[C@H]3[N+](C)(C)CC2 | > 100 µM (inactive) | > 100 µM (inactive) | > 100 µM (inactive) | > 100 µM (inactive) | > 100 | > 100 µM (inactive) | > 100 µM (inactive) | > 100 µM (inactive) | > 100 µM (inactive) | 46.6 µM (inactive) | > 100 µM (inactive) | 5.51 µM (inactive) | 75.5 µM (inactive) | > 100 µM (inactive) | > 100 µM (inactive) | > 100 µM (inactive) | > 100 µM (inactive) | > 100 µM (inactive) | 68.4 µM (inactive) | > 100 µM (inactive) |
| COc1nc(NC2OC(COC(C)=O)C(OC(C)=O)C(OC(C)=O)C2OC(C)=O)c(/N=C/C=N/c2c(NC3OC(COC(C)=O)C(OC(C)=O)C(OC(C)=O)C3OC(C)=O)nc(OC)n(C)c2=O)c(=O)n1C (stereo not drawn) | > 100 µM (inactive) | > 100 µM (inactive) | > 100 µM (inactive) | > 100 µM (inactive) | > 100 | 28.3 µM (inactive) | > 100 µM (inactive) | > 100 µM (inactive) | > 100 µM (inactive) | > 100 µM (inactive) | > 100 µM (inactive) | > 100 µM (inactive) | > 100 µM (inactive) | 30.5 µM (inactive) | 49.2 µM (inactive) | > 100 µM (inactive) | > 100 µM (inactive) | > 100 µM (inactive) | > 100 µM (inactive) | > 100 µM (inactive) |
| CN1C(NN)=NS(=O)(=O)c2ccccc21 | > 100 µM (inactive) | > 100 µM (inactive) | > 100 µM (inactive) | > 100 µM (inactive) | > 100 | > 100 µM (inactive) | > 100 µM (inactive) | > 100 µM (inactive) | > 100 µM (inactive) | > 100 µM (inactive) | > 100 µM (inactive) | > 100 µM (inactive) | > 100 µM (inactive) | > 100 µM (inactive) | > 100 µM (inactive) | > 100 µM (inactive) | > 100 µM (inactive) | > 100 µM (inactive) | > 100 µM (inactive) | > 100 µM (inactive) |
| CCCCCCCCCCCCCCCCCCNc1ccn(C2OC(CO)C(O)C2O)c(=O)n1 (stereo not drawn) | > 100 µM (inactive) | 5.37 µM (inactive) | > 100 µM (inactive) | > 100 µM (inactive) | > 100 | > 28.8 µM (inactive) | > 62.8 µM (inactive) | > 100 µM (inactive) | > 100 µM (inactive) | > 100 µM (inactive) | > 100 µM (inactive) | > 100 µM (inactive) | 2.45 µM (inactive) | 7.66 µM (inactive) | > 100 µM (inactive) | > 100 µM (inactive) | > 40.7 µM (inactive) | > 100 µM (inactive) | 38 µM (inactive) | 4.58 µM (inactive) |
| O=C(CSC1=NCCN1)Nc1ccccc1 | 24.5 µM (inactive) | 67.9 µM (inactive) | 33.7 µM (inactive) | 45.2 µM (inactive) | 29.2 | 28.1 µM (inactive) | 18 µM (inactive) | 20.6 µM (inactive) | 34.8 µM (inactive) | 37.6 µM (inactive) | 20.7 µM (inactive) | 65.8 µM (inactive) | 19.9 µM (inactive) | 13.8 µM (inactive) | 29.4 µM (inactive) | 26.3 µM (inactive) | 12.9 µM (inactive) | 22.1 µM (inactive) |  | 52.1 µM (inactive) |
| C/C=C/C=C/C1=NN(c2cccc(S(=O)(=O)O)c2)C2(C1)C(Cl)C(=O)N2c1nc2ccccc2s1 (stereo not drawn) | 17.7 µM (inactive) | 3.01 µM (inactive) | 13.4 µM (inactive) | 16.4 µM (inactive) | 14.5 | 25.2 µM (inactive) | 7.85 µM (inactive) | 14.5 µM (inactive) | 13.4 µM (inactive) | 15.1 µM (inactive) | 8.36 µM (inactive) | 13.7 µM (inactive) | 13.5 µM (inactive) | 6.3 µM (inactive) | 16.3 µM (inactive) | 20.6 µM (inactive) | 4.6 µM (inactive) | 13 µM (inactive) | 18.3 µM (inactive) | 28.6 µM (inactive) |
| CC(=O)OC(Cn1cncn1)(Cn1cncn1)c1ccc(Cl)cc1Cl | > 100 µM (inactive) | > 100 µM (inactive) | > 100 µM (inactive) | > 100 µM (inactive) | > 100 | > 100 µM (inactive) | > 100 µM (inactive) | > 100 µM (inactive) | > 100 µM (inactive) |  | > 100 µM (inactive) | > 100 µM (inactive) | > 100 µM (inactive) | > 100 µM (inactive) | > 100 µM (inactive) | > 100 µM (inactive) | > 100 µM (inactive) |  | > 100 µM (inactive) | > 100 µM (inactive) |
| CCC/C=C/C=C/C1CC(O)C(O)C(=O)C1CO (stereo not drawn) | > 100 µM (inactive) | > 100 µM (inactive) | > 100 µM (inactive) | > 100 µM (inactive) | > 100 | > 100 µM (inactive) | > 100 µM (inactive) | > 100 µM (inactive) | > 100 µM (inactive) | > 100 µM (inactive) | 21.6 µM (inactive) | > 100 µM (inactive) | 51.1 µM (inactive) | > 100 µM (inactive) | > 100 µM (inactive) | > 100 µM (inactive) | > 100 µM (inactive) | > 100 µM (inactive) | > 100 µM (inactive) |  |
| COc1cc2c(cc1OC)C(=O)/C(=C/c1cc(Cl)cc(Cl)c1)C2 | 7.26 µM (inactive) | 2.07 µM (inactive) | 10.6 µM (inactive) | 19.8 µM (inactive) | 3.03 | 11.3 µM (inactive) | 4.24 µM (inactive) | 11.3 µM (inactive) | 1.7 µM (inactive) | 7.66 µM (inactive) | 3.33 µM (inactive) | 17.1 µM (inactive) | 4.03 µM (inactive) | 7.41 µM (inactive) | 2.49 µM (inactive) | 61.7 µM (inactive) | 7.4 µM (inactive) | 3.39 µM (inactive) | 6.21 µM (inactive) | 5.08 µM (inactive) |
| c1ccc2c(NCCCCCCNc3c4ccccc4nc4ccccc34)c3ccccc3nc2c1 | 1.5 µM (inactive) | 0.0471 µM (active) | 0.632 µM (active) | 0.367 µM (active) | 4.34 | 0.682 µM (active) | 0.105 µM (active) | 0.08 µM (active) | 0.887 µM (active) | 0.274 µM (active) | 0.277 µM (active) | 0.429 µM (active) | 0.445 µM (active) | 0.191 µM (active) | 0.281 µM (active) |  | 0.647 µM (active) | 0.695 µM (active) | 0.235 µM (active) | 0.0149 µM (active) |
